Like-named read-outs stand apart in the source and are kept apart here.
Columns and labels:
Ralstonia solanacearum [1] = format: in vivo; conditions: tomato, 33 days after transplantation
Ralstonia solanacearum [2] = format: in vivo; conditions: tomato, 17 days after transplantation, 10 mgAI/m^2

CCOP(=O)(SC(C)CC)SC(C)CC (stereo not shown) [Cadusafos, cadusafos]
Controlling value (%) (Ralstonia solanacearum [1]; 900 mgAI/m^2, with Paecilomyces fumosoroseus 3 × 10^9 CFU/m^2 (+)): 100%
Controlling value (%) (Ralstonia solanacearum [1]; 900 mgAI/m^2, without Paecilomyces fumosoroseus (−)): 50%

O=S(=O)(CCC(F)=C(F)F)c1ncc(Cl)s1 [Fluensulfone, fluensulfone]
Controlling value (%) (Ralstonia solanacearum [1]; 400 mgAI/m^2, with Paecilomyces fumosoroseus 3 × 10^9 CFU/m^2 (+)): 85%
Controlling value (%) (Ralstonia solanacearum [1]; 400 mgAI/m^2, without Paecilomyces fumosoroseus (−)): 0%

O=C(NCCc1ncc(C(F)(F)F)cc1Cl)c1ccccc1C(F)(F)F [Fluopyram, fluopyram]
Controlling value (%) (Ralstonia solanacearum [1]; 10 mgAI/m^2, with Paecilomyces fumosoroseus 3 × 10^9 CFU/m^2 (+)): 62%
Controlling value (%) (Ralstonia solanacearum [1]; 10 mgAI/m^2, without Paecilomyces fumosoroseus (−)): 0%

CCOP(=O)(SC(C)CC)N1CCSC1=O (stereo not shown) [Fosthiazate, fosthiazate]
Controlling value (%) (Ralstonia solanacearum [1]; 300 mgAI/m^2, with Paecilomyces fumosoroseus 3 × 10^9 CFU/m^2 (+)): 85%
Controlling value (%) (Ralstonia solanacearum [1]; 300 mgAI/m^2, without Paecilomyces fumosoroseus (−)): 0%

COP(=S)(OC)Oc1ccc([N+](=O)[O-])c(C)c1 [MEP, MEP (fenitrothion)]
Controlling value (%) (Ralstonia solanacearum [2]; with Paecilomyces fumosoroseus 3 × 10^9 CFU/m^2 (+)): 75%
Controlling value (%) (Ralstonia solanacearum [2]; without Paecilomyces fumosoroseus (−)): 0%

From patent US11832615B2 (priority 2013, dated 2023)
